Laboratory results as given in patent US20100105694A1, “SUBSTITUTED PYRAZINONE DERIVATIVES FOR USE AS A MEDICINE” (priority 2006, published 2010).
Where two headings read alike, the source gives them in different places.

Assays:
[1] = molecular target: T1, human adrenergic-α2C receptor (Homo sapiens, UniProt P18825); assay: Radioligand binding experiment for α2C-adrenoceptor ([3H]raulwolscine, CHO cell membranes)
T1 construct: expressed in transfected cells; host or cells: CHO cells, stably transfected; membranes
T1 sequence (P18825 1-462): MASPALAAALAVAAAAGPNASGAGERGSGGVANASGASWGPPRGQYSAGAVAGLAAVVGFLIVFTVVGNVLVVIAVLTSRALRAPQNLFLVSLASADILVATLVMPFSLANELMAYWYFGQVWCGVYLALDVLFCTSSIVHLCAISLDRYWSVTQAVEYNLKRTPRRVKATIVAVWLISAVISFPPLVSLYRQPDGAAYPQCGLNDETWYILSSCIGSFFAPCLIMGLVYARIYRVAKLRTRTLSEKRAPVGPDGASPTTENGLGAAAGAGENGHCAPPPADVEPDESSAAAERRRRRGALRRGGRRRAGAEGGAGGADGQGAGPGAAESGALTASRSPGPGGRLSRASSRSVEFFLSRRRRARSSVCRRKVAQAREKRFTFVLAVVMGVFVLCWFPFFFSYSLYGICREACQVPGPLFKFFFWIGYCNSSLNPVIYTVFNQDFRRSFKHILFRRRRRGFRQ
Procedure: (§1) The interaction of a compound of Formula (I) with α2C-adrenoceptor receptors was assessed in in vitro radioligand binding experiments. In general, a low concentration of a radioligand with a high binding affinity for a particular receptor or transporter is incubated with a sample of a tissue preparation enriched in a particular receptor or transporter or with a preparation of cells expressing cloned human receptors in a buffered medium. During the incubation, the radioligand binds to the receptor or transporter. When equilibrium of binding is reached, the receptor bound radioactivity is separated from the non-bound radioactivity, and the receptor- or transporter-bound activity is counted. The interaction of the test compounds with the receptor is assessed in competition binding experiments. Various concentrations of the test compound are added to the incubation mixture containing the receptor- or transporter preparation and the radioligand. The test compound in proportion to its binding affinity and its concentration inhibits binding of the radioligand. The radioligand used for hα2A and hα2C receptor binding was [^3H]-raulwolscine.
(§2) CHO cells, stabile transfected with human adrenergic-α2A and α2C receptor cDNA, were cultured in Dulbecco's Modified Eagle's Medium (DMEM)/Nutrient mixture Ham's F12 (ratio 1:1) (Gibco, Gent-Belgium) supplemented with 10% heat inactivated fetal calf serum (Life Technologies, Merelbeke-Belgium) and antibiotics (100 IU/ml penicillin G, 100 μg/ml streptomycin sulphate, 110 μg/ml pyruvic acid and 100 μg/ml L-glutamine). One day before collection, cells were induced with 5 mM sodiumbutyrate. Upon 80-90% of confluence, cells were scraped in phosphate buffered saline without Ca^2+ and Mg^2+ and collected by centrifugation at 1500×g for 10 minutes. The cells were homogenised in Tris-HCl 50 mM using an Ultraturrax homogenizer and centrifuged for 10 minutes at 23,500×g. The pellet was washed once by resuspension and rehomogenization and the final pellet was resuspended in Tris-HCl, divided in 1 ml aliquots and stored at −70° C.
(§3) Membranes were thawed and re-homogenized in incubation buffer (glycylglycine 25 mM, pH 8.0). […] Filters were rinsed extensively with ice-cold rinsing buffer (Tris-HCl 50 mM pH 7.4). Filter-bound radioactivity was determined by scintillation counting in a Topcount (Packard, Meriden, Conn.) and results were expressed as counts per minute (cpm). Non-specific binding was determined in the presence of 1 μM oxymetazoline for the hα2A receptor and 1 μM spiroxatrine for hα2C receptors.
(§4) Data from assays in the presence of compound were calculated as a percentage of total binding measured in the absence of test compound. Inhibition curves, plotting percent of total binding versus the log value of the concentration of the test compound, were automatically generated, and sigmoidal inhibition curves were fitted using non-linear regression. The pIC50 values of test compounds were derived from individual curves.

[2] = molecular target: T2, human adrenergic-α2A receptor (Homo sapiens, UniProt P08913); assay: Radioligand binding experiment for hα2A receptor ([3H]raulwolscine, CHO cell membranes)
T2 construct: expressed in transfected cells; host or cells: CHO cells, stably transfected; membranes
T2 sequence (P08913 1-465): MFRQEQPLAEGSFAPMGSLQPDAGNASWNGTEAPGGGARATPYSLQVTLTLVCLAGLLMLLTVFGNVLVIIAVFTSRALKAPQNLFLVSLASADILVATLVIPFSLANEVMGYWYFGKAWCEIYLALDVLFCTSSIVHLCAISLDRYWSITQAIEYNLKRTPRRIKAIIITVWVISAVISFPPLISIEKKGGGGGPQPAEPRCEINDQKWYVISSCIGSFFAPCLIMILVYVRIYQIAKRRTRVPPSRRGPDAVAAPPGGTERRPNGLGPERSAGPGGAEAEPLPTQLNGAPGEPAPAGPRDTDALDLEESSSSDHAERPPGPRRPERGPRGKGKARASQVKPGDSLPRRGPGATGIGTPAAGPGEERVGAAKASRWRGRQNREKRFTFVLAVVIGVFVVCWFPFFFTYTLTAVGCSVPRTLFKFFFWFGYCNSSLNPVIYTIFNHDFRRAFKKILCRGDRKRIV
Procedure: as §1, §2, §3, §4

[3] = molecular target: T3, 5HT-Transporter (Homo sapiens, UniProt P31645); assay: Binding experiment for the 5HT-transporter ([3H]paroxetine, human platelet membranes)
T3 construct: Human platelet membranes (Oceanix Biosciences Corporation, Hanover, Md., USA) were thawed; tissue Oceanix Biosciences Corporation; host or cells: human platelet membranes
T3 sequence (P31645 whole entry): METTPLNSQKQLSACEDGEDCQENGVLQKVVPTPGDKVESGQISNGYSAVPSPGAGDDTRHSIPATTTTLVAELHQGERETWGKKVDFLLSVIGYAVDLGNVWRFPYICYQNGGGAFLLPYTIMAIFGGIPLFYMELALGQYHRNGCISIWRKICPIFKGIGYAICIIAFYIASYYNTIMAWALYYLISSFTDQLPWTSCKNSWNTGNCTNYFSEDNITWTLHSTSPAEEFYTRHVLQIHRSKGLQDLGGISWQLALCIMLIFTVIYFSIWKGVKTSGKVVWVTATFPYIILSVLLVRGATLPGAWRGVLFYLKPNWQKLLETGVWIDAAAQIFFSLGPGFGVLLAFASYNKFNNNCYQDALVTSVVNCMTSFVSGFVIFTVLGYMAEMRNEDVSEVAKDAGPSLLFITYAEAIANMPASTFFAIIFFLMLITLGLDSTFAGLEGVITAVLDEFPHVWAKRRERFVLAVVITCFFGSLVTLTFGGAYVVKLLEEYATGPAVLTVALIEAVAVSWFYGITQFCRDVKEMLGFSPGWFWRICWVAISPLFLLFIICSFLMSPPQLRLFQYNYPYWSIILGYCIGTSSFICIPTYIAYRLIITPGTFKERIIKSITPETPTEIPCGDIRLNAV
Procedure: as §1
Human platelet membranes (Oceanix Biosciences Corporation, Hanover, Md., USA) were thawed, diluted in buffer (Tris-HCl 50 mM, 120 mM NaCl and 5 mM KCl) and quickly (max 3 s) homogenised with an Ultraturrax homogenizer. […] Incubation was stopped by rapid filtration of the incubation mixture over GF/B filters, pre-wetted with 0.1% polyethyleneamine, using a Filtermate196 harvester (Packard, Meriden, Conn.). Filters were rinsed extensively with ice-cold buffer and radioactivity on the filters was counted in a Topcount liquid scintillation counter (Packard, Meriden, Conn.). Data were expressed as cpm. Imipramine (at 1 μM final concentration) was used to determine the non-specific binding.
as §4

[4] = [3H]raulwolscine 1 nM, membranes of CHO cells transfected with human α2C receptor, read-out: h-α2C pIC50 (converted)
[5] = [3H]raulwolscine 1 nM, membranes of CHO cells transfected with human α2A receptor, read-out: h-α2A pIC50 (converted)
[6] = [3H]paroxetine 0.5 nM, read-out: h-5HTT pIC50 (converted)

Row | Compound | IC50 [1, 4] | IC50 [2, 5] | IC50 [3, 6] | IC50 [1] | IC50 [2] | IC50 ([3]; h-5HTT pIC50, [3H]paroxetine 0.5 nM)
1 | CC(C)(C)OC(=O)NCCCn1ccnc(N2CCN(Cc3ccc(-c4ccccc4)cc3)CC2)c1=O [Compound 2-1] | 631 nM | 1260 nM | 1580 nM |  |  | 
2 | NCc1ccc(Cn2ccnc(NC3CCN(Cc4ccc(-c5ccccc5)cc4)CC3)c2=O)cc1 [Compound 1-1] | 251 nM | 251 nM | 501 nM |  |  | 
3 | O=c1c(NC2CCN(Cc3ccc(-c4ccccc4)cc3)CC2)nccn1Cc1ccccc1Br [Compound 1-6] | 501 nM | 794 nM | 398 nM |  |  | 
4 | O=C1c2ccccc2C(=O)N1CCCn1ccnc(NC2CCN(Cc3ccc(-c4ccccc4)cc3)CC2)c1=O [Compound 1-4] | 126 nM | 631 nM | 158 nM |  |  | 
5 | O=c1[nH]ccnc1N1CCN(Cc2cccc(-c3ccccc3)c2)CC1 [Compound 3-3] | 316 nM | 316 nM | > 10000 nM |  |  | 
6 | NCc1ccc(Cn2ccnc(N3CCN(Cc4cccc(-c5ccccc5)c4)CC3)c2=O)cc1 [Compound 3-1] | 631 nM | 79.4 nM | 5010 nM |  |  | 
7 | O=C1c2ccccc2C(=O)N1CCCn1ccnc(NC2CCN(CCCc3ccccc3)CC2)c1=O [Compound 7-5] |  |  |  | 20 nM | 501 nM | 1000 nM

Now from value to compound, other results behind:

Row | IC50 [1, 4] | IC50 [2, 5] | IC50 [3, 6] | Compound | IC50 [1] | IC50 [2] | IC50 ([3]; h-5HTT pIC50, [3H]paroxetine 0.5 nM)
8 | 316 nM | 501 nM | 3160 nM | O=c1c(N2CCN(CCc3ccccc3)CC2)nccn1Cc1ccc2ccccc2c1 [Compound 10-10] |  |  | 
9 | 200 nM | 794 nM | > 10000 nM | O=c1c(N2CCN(CCc3ccccc3)CC2)nccn1Cc1ccc(Cl)s1 [Compound 10-11] |  |  | 
10 | 631 nM | 631 nM | 1580 nM | O=c1c(NC2CCN(Cc3ccc(OCc4ccccc4)cc3)CC2)nccn1Cc1ccc(Br)cc1 [Compound 11-7] |  |  | 
11 | 398 nM | 1260 nM | > 10000 nM | NCc1ccc(Cn2ccnc(NC3CCN(CCc4ccccc4)CC3)c2=O)cc1 [Compound 6-3] |  |  | 
12 | 316 nM | 1580 nM | > 10000 nM | O=c1c(NC2CCN(CCc3ccccc3)CC2)nccn1CCN1CCCCC1 [Compound 6-5] |  |  | 
